Tests used:
[1] = KM-34 capacity to reduce DPPH radicals; type: biochemical; settings: DPPH 100 μM, 30 minutes of reaction; read-out: IC50, reduction of DPPH radicals
Procedure: FIG. 1. Percentage reduction of DPPH (100 μM) by KM-34 (5-400 μM) was determined by changing in the absorbance at 550 nm from a target containing only DPPH and vehicle (zero concentration of KM −34 or AA), after 30 minutes of reaction. Values are expressed as the mean ± SD (n=3). *P<0.05 with respect to the vehicle.
One of the most commonly used methods to estimate antioxidant activity is to evaluate the ability of different compounds to reduce DPPH radicals, which can be determined spectrophotometrically (Brand-Williams et al., 1995). […] Electron delocalization causes the intense violet coloration of the DPPH radical form when it is prepared in ethanol solution (Molyneux et al., 2004).
The IC 50 value obtained for KM was approximately 2.4 times lower than that obtained for ascorbic acid (AA) used as the reference compound.

[2] = tested on: transient occlusion of the common carotid arteries; test: Vascular dementia model (transient occlusion of common carotid arteries), Morris maze; type: in vivo, male Swiss albino mice; settings: JM-20 4 mg/kg p.o., 1 hour after reperfusion and all days of the test; vs animals without treatment
Procedure: As a model of vascular dementia, the animals (male Swiss albino mice) underwent transient occlusion of the common carotid arteries for 20 minutes and cognitive impairment was evaluated through the Morris labyrinthine assay. […] As a model of permanent cortical ischemia, thermo-coagulation of the pials arteries was induced and the percentage of asymmetry was quantified.

For `O=C1O[C@H]([C@@H](O)CO)C(O)=C1O` [AA, ascorbic acid, reference compound], the IC50 [1] was 38.7 µM.

With `CCOC(=O)C1=C(C)NC2=C(C=Nc3ccccc3N2)C1c1ccccc1[N+](=O)[O-]` (centres unmarked) [JM-20, 3-ethoxycarbonyl-2-methyl-4-(2-nitrophenyl)-4,11-dihydro-1H-pyrido[2,3-b][1,5]benzodiazepine] the “Escape latency time, Morris maze” value [2] was “significantly (p<0.05)”.

Reference: patent US10722491B2, “Phenol compound and combination of same with a benzodiazepine fused to 1,4-dihydropyridine for treating diseases of the central nervous and vascular systems” (UNIVERSIDAD DE LA HABANA, priority 2016, dated 2020)
